Peptide text beside a SMILES is read from it.
How the values were obtained:
FPR2 = target: T1, FPR2 (Homo sapiens, UniProt P25090); assay: Change in calcium activity by peptide (Fura-2) in RBL cells overexpressing FPR2; assay type: cell-based; conditions: calcium activity (Fura-2), graded per Table 3, read-out: EC50 for [Ca^2+] FPR2
T1 construct: expressed in transfected cells; host or cells: RBL cells (RBL-FPR2)
T1 sequence (P25090 1-351): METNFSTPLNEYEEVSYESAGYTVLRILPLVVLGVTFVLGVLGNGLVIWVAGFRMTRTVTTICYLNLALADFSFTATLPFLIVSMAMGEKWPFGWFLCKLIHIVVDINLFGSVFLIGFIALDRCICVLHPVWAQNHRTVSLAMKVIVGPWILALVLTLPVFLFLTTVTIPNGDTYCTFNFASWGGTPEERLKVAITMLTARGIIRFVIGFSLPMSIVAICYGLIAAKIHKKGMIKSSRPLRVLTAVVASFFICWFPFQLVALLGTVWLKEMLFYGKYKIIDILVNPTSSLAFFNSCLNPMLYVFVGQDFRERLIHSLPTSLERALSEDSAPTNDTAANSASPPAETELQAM
In short: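 Peptide-induced intracellular calcium change measured by Fura-2 fluorescence on a plate reader. Cells: RBL line overexpressing FPR2, dye-loaded 1 h at 37 °C then 30 min at RT in dark; peptides from 0.5 mM water/50% DMSO stocks, diluted in HBSS with 20 mM HEPES.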

FPR1 = target: T2, FPR1 (Homo sapiens, UniProt P21462); assay: Change in calcium activity by peptide, FPR1 activation effect; assay type: cell-based; conditions: calcium activity (Fura-2), graded per Table 3, read-out: EC50 for [Ca^2+] FPR1
T2 sequence (P21462 1-350): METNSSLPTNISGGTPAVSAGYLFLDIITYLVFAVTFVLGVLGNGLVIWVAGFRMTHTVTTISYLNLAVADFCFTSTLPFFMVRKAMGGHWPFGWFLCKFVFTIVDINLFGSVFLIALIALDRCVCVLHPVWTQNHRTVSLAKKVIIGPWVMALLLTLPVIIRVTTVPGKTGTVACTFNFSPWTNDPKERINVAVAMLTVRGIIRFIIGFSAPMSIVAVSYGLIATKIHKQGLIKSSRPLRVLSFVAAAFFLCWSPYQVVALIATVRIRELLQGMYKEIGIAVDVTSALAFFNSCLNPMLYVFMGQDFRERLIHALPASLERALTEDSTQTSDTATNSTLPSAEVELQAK
In short: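 Calcium flux induced by peptide addition was monitored on a FlexStation 3 plate reader. Before this, cells seeded a day earlier (3×10^5/well) took up the Fura-2 dye for 1 h at 37 °C plus 30 min dark at room temperature.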

SMILES | EC50 (FPR2) | EC50 (FPR1)
CSCC[C@H](NC(=O)[C@H](CCCNC(=N)N)NC(C)=O)C(=O)N[C@@H](CCCNC(=N)N)C(=O)N[C@@H](Cc1ccc(O)cc1)C(=O)N[C@@H](Cc1ccc(O)cc1)C(=O)N1CCC[C@H]1C(=O)N[C@H](CCSC)C(N)=O [Peptide 119] (HELM PEPTIDE1{[ac].R.M.R.Y.Y.P.[dM].[am]}$$$$V2.0) | < 10 nM | 101 to 1000 nM
CSCC[C@H](NC(=O)[C@H](Cc1c[nH]cn1)NC(C)=O)C(=O)N[C@@H](CCCNC(=N)N)C(=O)N[C@@H](Cc1ccc(O)cc1)C(=O)N[C@@H](CCCCN)C(=O)N1CCC[C@H]1C(=O)N[C@H](CCSC)C(N)=O [Peptide 59] (HELM PEPTIDE1{[ac].H.M.R.Y.K.P.[dM].[am]}$$$$V2.0) | < 10 nM | > 10000 nM
CSCC[C@H](NC(C)=O)C(=O)N[C@@H](CCCNC(=N)N)C(=O)N[C@@H](Cc1ccc(O)cc1)C(=O)N[C@@H](Cc1c[nH]c2ccccc12)C(=O)N1CCC[C@H]1C(=O)N[C@H](CCSC)C(N)=O [Peptide 111] (HELM PEPTIDE1{[ac].M.R.Y.W.P.[dM].[am]}$$$$V2.0) | < 10 nM | 1000 to 10000 nM
CCCC(=O)N[C@@H](Cc1c[nH]cn1)C(=O)N[C@@H](CCSC)C(=O)N[C@@H](CCCNC(=N)N)C(=O)N[C@@H](Cc1ccc(O)cc1)C(=O)N[C@@H](CCCCN)C(=O)N1CCC[C@H]1C(=O)N[C@H](CCSC)C(N)=O [Peptide 60] (HELM PEPTIDE1{[CCCC(=O)[*:2]].H.M.R.Y.K.P.[dM].[am]}$$$$V2.0) | < 10 nM | > 10000 nM
CC[C@H](C)[C@H](N)C(=O)N[C@@H](CCCCN)C(=O)N[C@@H](Cc1ccccc1)C(=O)N[C@@H](Cc1c[nH]c2ccccc12)C(=O)N[C@@H](CCSC)C(=O)N[C@H](CCSC)C(N)=O [Peptide 129] (HELM PEPTIDE1{I.K.F.W.M.[dM].[am]}$$$$V2.0) | 11 to 100 nM | > 10000 nM
CCCCCCCC(=O)N1CCC[C@H]1C(=O)N[C@@H](CCSC)C(=O)N[C@@H](CCCCN)C(=O)N[C@@H](Cc1ccc(O)cc1)C(=O)N[C@@H](CCCCN)C(=O)N[C@H](C(=O)N[C@H](CCSC)C(N)=O)C(C)C [Peptide 28] (HELM PEPTIDE1{[CCCCCCCC(=O)[*:2]].P.M.K.Y.K.V.[dM].[am]}$$$$V2.0) | < 10 nM | > 10000 nM
CSCC[C@H](N)C(=O)N[C@@H](CCCNC(=N)N)C(=O)N[C@@H](Cc1ccc(O)cc1)C(=O)N[C@@H](Cc1ccc(O)cc1)C(=O)N[C@H](C(=O)N[C@H](CCSC)C(N)=O)C(C)C [Peptide 100] (HELM PEPTIDE1{M.R.Y.Y.V.[dM].[am]}$$$$V2.0) | < 10 nM | 1000 to 10000 nM
CC[C@H](C)[C@H](N)C(=O)N[C@@H](CCCCN)C(=O)N[C@@H](Cc1ccccc1)C(=O)N[C@@H](CCCCN)C(=O)N1CCC[C@H]1C(=O)N[C@H](CCSC)C(N)=O [Peptide 133] (HELM PEPTIDE1{I.K.F.K.P.[dM].[am]}$$$$V2.0) | < 10 nM | > 10000 nM
CCCCCCCC(=O)N[C@@H](CCSC)C(=O)N[C@@H](CCCNC(=N)N)C(=O)N[C@@H](Cc1ccc(O)cc1)C(=O)N[C@@H](CCCCN)C(=O)N1CCC[C@H]1C(=O)N[C@H](CCSC)C(N)=O [Peptide 57] (HELM PEPTIDE1{[CCCCCCCC(=O)[*:2]].M.R.Y.K.P.[dM].[am]}$$$$V2.0) | < 10 nM | > 10000 nM
CSCC[C@@H](NC(=O)[C@H](Cc1ccc(O)cc1)NC(=O)[C@H](Cc1c[nH]c2ccccc12)NC(=O)[C@H](Cc1ccc(O)cc1)NC(=O)[C@H](CCCNC(=N)N)NC(=O)[C@@H](N)Cc1c[nH]c2ccccc12)C(N)=O [Peptide 79] (HELM PEPTIDE1{W.R.Y.W.Y.[dM].[am]}$$$$V2.0) | 11 to 100 nM | > 10000 nM
CSCC[C@H](NC(=O)[C@@H]1CCCN1)C(=O)N[C@@H](CCCNC(=N)N)C(=O)N[C@@H](Cc1ccc(O)cc1)C(=O)N[C@@H](CCCCN)C(=O)N[C@@H](Cc1ccc(O)cc1)C(=O)N[C@H](CCSC)C(N)=O [Peptide 46] (HELM PEPTIDE1{P.M.R.Y.K.Y.[dM].[am]}$$$$V2.0) | < 10 nM | > 10000 nM

Further lines, results first:

EC50 (FPR2) | EC50 (FPR1) | SMILES
11 to 100 nM | > 10000 nM | CC[C@H](C)[C@H](NC(=O)[C@H](CCCNC(=N)N)NC(=O)[C@H](Cc1ccc(O)cc1)NC(=O)[C@H](CCCNC(=N)N)NC(=O)[C@H](Cc1c[nH]c2ccccc12)NC(=O)[C@@H](N)CCCNC(=N)N)C(=O)N[C@H](CCSC)C(N)=O [Peptide 152] (HELM PEPTIDE1{R.W.R.Y.R.I.[dM].[am]}$$$$V2.0)
< 10 nM | > 10000 nM | CSCC[C@@H](NC(=O)[C@@H](NC(=O)[C@H](CCCCN)NC(=O)[C@H](Cc1ccc(O)cc1)NC(=O)[C@H](CCCNC(=N)N)NC(=O)[C@H](Cc1c[nH]c2ccccc12)NC(=O)[C@@H](N)CCCNC(=N)N)C(C)C)C(N)=O [Peptide 1] (HELM PEPTIDE1{R.W.R.Y.K.V.[dM].[am]}$$$$V2.0)
11 to 100 nM | > 10000 nM | CSCC[C@@H](NC(=O)[C@H](Cc1ccc(O)cc1)NC(=O)[C@H](CC(N)=O)NC(=O)[C@H](Cc1ccc(O)cc1)NC(=O)[C@H](CCCNC(=N)N)NC(=O)[C@H](Cc1c[nH]c2ccccc12)NC(=O)[C@@H](N)CCCNC(=N)N)C(N)=O [Peptide 155] (HELM PEPTIDE1{R.W.R.Y.N.Y.[dM].[am]}$$$$V2.0)
< 10 nM | > 10000 nM | CSCC[C@@H](NC(=O)[C@H](Cc1ccc(O)cc1)NC(=O)[C@H](CCCCN)NC(=O)[C@H](Cc1ccc(O)cc1)NC(=O)[C@H](CCCCN)NC(=O)[C@H](Cc1c[nH]c2ccccc12)NC(=O)[C@H](CCCCN)NC(C)=O)C(N)=O [Peptide 36] (HELM PEPTIDE1{[ac].K.W.K.Y.K.Y.[dM].[am]}$$$$V2.0)
< 10 nM | > 10000 nM | CSCC[C@@H](NC(=O)[C@H](Cc1ccc(O)cc1)NC(=O)[C@H](CCCCN)NC(=O)[C@H](Cc1ccc(O)cc1)NC(=O)[C@H](CCCNC(=N)N)NC(=O)[C@@H](N)Cc1c[nH]c2ccccc12)C(N)=O [Peptide 35] (HELM PEPTIDE1{W.R.Y.K.Y.[dM].[am]}$$$$V2.0)
< 10 nM | > 10000 nM | CCCC(=O)N[C@@H](CCCNC(=N)N)C(=O)N[C@@H](CCSC)C(=O)N[C@@H](CCCNC(=N)N)C(=O)N[C@@H](Cc1ccc(O)cc1)C(=O)N[C@@H](Cc1c[nH]c2ccccc12)C(=O)N[C@@H](Cc1ccc(O)cc1)C(=O)N[C@H](CCSC)C(N)=O [Peptide 83] (HELM PEPTIDE1{[CCCC(=O)[*:2]].R.M.R.Y.W.Y.[dM].[am]}$$$$V2.0)
< 10 nM | 1000 to 10000 nM | CSCC[C@@H](NC(=O)[C@@H](NC(=O)[C@H](Cc1ccc(O)cc1)NC(=O)[C@H](Cc1ccc(O)cc1)NC(=O)[C@H](CCCNC(=N)N)NC(=O)[C@H](Cc1c[nH]c2ccccc12)NC(=O)[C@@H](N)CCCNC(=N)N)C(C)C)C(N)=O [Peptide 94] (HELM PEPTIDE1{R.W.R.Y.Y.V.[dM].[am]}$$$$V2.0)
11 to 100 nM | > 10000 nM | CSCC[C@H](NC(C)=O)C(=O)N[C@@H](CCCCN)C(=O)N[C@@H](Cc1ccc(O)cc1)C(=O)N[C@@H](Cc1c[nH]c2ccccc12)C(=O)N[C@@H](Cc1ccc(O)cc1)C(=O)N[C@H](CCSC)C(N)=O [Peptide 90] (HELM PEPTIDE1{[ac].M.K.Y.W.Y.[dM].[am]}$$$$V2.0)
11 to 100 nM | 101 to 1000 nM | CSCC[C@@H](NC(=O)[C@@H](NC(=O)[C@H](Cc1ccc(O)cc1)NC(=O)[C@H](Cc1ccc(O)cc1)NC(=O)[C@H](CCCNC(=N)N)NC(=O)[C@H](Cc1c[nH]c2ccccc12)NC(C)=O)C(C)C)C(N)=O [Peptide 95] (HELM PEPTIDE1{[ac].W.R.Y.Y.V.[dM].[am]}$$$$V2.0)
